Experiments:
[1] = target: Sigma non-opioid intracellular receptor 1 (Homo sapiens) (UniProt Q99720); assay: Sigma 1 Eurofins-Panlabs radioligand binding assay; set-up: ligand concentration 8 nM; details: Compound concentration 10.0 uM
[2] = target: Kappa-type opioid receptor (Homo sapiens) (UniProt P41145); details: Compound concentration 10.0 uM
[3] = target: Endothelin receptor type B (Homo sapiens) (UniProt P24530); details: Compound concentration 10.0 uM
Rattus norvegicus = species: Rattus norvegicus; assay: Inhibition of Thyroid Hormone at 10 µM in the Eurofins-Panlabs radioligand binding assay (Eurofins_assay_285900); assay type: protein assay; details: Compound concentration 10.0 uM
[4] = target: T1, Muscarinic acetylcholine receptor M2 (Homo sapiens) (UniProt P08172); details: Compound concentration 10.0 uM
T1 sequence (whole entry): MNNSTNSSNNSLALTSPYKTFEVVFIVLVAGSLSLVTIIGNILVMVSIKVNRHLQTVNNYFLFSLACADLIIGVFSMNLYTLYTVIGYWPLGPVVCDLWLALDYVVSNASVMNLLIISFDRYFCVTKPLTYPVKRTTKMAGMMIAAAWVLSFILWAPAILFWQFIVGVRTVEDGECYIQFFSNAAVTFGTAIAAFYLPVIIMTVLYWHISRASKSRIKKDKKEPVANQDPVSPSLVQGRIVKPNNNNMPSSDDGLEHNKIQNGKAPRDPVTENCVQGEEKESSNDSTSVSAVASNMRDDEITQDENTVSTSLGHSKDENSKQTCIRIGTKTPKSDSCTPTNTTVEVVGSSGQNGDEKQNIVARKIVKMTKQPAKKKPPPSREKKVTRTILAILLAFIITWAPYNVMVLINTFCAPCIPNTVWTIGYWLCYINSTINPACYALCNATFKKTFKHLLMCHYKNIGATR

[5] = target: Mu-type opioid receptor (Homo sapiens) (UniProt P35372); assay: my(MOP) (h) Eurofins-Cerep Cellular and Nuclear Receptor Functional Assays; details: Compound concentration 10.0 uM
Chain of Mu-type opioid receptor (Homo sapiens) (P35372 whole entry): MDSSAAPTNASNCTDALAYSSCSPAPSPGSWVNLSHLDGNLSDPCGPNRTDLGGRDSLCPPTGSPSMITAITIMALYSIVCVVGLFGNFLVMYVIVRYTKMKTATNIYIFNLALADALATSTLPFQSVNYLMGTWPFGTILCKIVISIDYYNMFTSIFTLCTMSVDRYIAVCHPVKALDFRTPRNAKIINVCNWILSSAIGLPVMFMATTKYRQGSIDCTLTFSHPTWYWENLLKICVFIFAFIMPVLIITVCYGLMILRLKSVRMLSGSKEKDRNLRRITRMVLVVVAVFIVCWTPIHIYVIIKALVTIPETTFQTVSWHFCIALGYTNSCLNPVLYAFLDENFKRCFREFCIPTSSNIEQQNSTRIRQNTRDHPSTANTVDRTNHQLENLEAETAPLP

[6] = target: T2, Muscarinic acetylcholine receptor M1 (Homo sapiens) (UniProt P11229); details: Compound concentration 10.0 uM
T2 sequence (whole entry): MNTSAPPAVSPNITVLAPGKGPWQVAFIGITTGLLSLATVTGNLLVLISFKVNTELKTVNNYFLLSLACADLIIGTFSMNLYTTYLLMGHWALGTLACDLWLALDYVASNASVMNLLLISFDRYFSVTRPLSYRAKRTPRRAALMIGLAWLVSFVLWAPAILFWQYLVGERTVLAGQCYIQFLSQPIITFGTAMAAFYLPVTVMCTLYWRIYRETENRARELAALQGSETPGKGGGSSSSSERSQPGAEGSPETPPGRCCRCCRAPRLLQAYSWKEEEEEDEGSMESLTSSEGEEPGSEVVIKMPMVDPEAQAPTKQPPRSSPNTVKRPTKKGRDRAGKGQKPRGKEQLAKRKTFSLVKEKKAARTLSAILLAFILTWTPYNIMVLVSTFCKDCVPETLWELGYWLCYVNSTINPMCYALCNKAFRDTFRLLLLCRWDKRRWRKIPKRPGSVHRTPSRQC

[7] = target: Neuropeptide Y receptor type 1 (Homo sapiens) (UniProt P25929); assay: Inhibition of Neuropeptide Y Y1 at 10 µM in the Eurofins-Panlabs radioligand binding assay (Eurofins_assay_257010); details: Compound concentration 10.0 uM
Chain of Neuropeptide Y receptor type 1 (Homo sapiens) (P25929 whole entry): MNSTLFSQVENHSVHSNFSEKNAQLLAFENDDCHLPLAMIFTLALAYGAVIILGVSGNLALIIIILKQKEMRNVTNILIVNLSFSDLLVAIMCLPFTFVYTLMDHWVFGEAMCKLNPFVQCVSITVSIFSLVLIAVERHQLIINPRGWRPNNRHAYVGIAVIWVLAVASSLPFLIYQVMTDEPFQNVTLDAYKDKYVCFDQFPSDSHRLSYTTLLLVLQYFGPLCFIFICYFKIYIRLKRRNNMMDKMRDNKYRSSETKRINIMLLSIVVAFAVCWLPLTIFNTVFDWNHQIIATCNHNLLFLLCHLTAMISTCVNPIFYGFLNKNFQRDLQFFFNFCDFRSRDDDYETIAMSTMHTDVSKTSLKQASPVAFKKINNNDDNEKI

[8] = target: Sodium-dependent serotonin transporter (Homo sapiens) (UniProt P31645); details: Compound concentration 10.0 uM
Chain of Sodium-dependent serotonin transporter (Homo sapiens) (P31645 whole entry, looked up): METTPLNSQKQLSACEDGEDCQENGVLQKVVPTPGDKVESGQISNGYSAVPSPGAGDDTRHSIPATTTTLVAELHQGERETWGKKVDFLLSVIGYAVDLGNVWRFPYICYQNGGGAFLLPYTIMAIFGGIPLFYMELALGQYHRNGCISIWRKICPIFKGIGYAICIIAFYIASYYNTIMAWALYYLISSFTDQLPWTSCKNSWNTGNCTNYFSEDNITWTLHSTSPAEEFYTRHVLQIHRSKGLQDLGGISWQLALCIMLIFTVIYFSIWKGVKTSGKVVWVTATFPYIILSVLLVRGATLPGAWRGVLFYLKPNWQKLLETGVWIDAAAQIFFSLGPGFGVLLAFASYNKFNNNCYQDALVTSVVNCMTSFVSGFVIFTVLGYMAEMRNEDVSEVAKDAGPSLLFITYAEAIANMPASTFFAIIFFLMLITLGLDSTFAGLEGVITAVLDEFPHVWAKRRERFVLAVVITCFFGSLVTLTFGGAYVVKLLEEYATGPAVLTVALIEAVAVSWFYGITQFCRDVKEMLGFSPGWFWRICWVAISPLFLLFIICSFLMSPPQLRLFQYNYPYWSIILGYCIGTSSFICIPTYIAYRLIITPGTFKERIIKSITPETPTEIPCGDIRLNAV

[9] = target: Beta-2 adrenergic receptor (Homo sapiens) (UniProt P07550); details: Compound concentration 10.0 uM
Chain of Beta-2 adrenergic receptor (Homo sapiens) (P07550 whole entry, looked up): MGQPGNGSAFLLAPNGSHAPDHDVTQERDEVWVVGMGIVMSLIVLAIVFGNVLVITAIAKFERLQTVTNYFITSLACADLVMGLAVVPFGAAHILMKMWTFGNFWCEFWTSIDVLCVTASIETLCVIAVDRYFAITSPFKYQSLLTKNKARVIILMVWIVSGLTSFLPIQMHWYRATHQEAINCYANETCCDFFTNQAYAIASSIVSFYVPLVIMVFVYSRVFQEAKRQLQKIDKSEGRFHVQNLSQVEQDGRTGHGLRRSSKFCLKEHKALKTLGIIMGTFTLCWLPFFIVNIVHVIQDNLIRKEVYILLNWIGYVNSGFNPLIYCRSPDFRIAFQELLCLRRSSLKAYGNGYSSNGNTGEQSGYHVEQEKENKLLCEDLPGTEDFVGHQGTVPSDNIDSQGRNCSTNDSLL

[10] = target: Substance-P receptor (Homo sapiens) (UniProt P25103); assay: Tachykinin NK1 Eurofins-Panlabs radioligand binding assay; details: Compound concentration 10.0 uM
Chain of Substance-P receptor (Homo sapiens) (P25103 whole entry): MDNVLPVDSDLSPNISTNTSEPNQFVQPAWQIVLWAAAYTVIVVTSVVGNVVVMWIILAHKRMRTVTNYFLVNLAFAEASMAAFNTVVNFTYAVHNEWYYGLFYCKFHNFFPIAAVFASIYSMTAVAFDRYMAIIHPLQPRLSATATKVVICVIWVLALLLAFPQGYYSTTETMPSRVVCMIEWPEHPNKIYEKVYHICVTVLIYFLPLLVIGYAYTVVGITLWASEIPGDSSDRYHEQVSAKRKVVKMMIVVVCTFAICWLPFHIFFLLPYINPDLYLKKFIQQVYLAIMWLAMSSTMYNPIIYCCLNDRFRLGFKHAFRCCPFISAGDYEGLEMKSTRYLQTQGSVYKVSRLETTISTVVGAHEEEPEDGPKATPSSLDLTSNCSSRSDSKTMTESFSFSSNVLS

[11] = target: Voltage-dependent N-type calcium channel subunit alpha-1B (Homo sapiens) (UniProt Q00975); assay: Inhibition of Calcium Channel N-Type at 10 µM in the Eurofins-Panlabs radioligand binding assay (Eurofins_assay_216000); details: Rattus norvegicus; Compound concentration 10.0 uM
Oryctolagus cuniculus = species: Oryctolagus cuniculus; assay: Inhibition of Purinergic P2X at 10 µM in the Eurofins-Panlabs radioligand binding assay (Eurofins_assay_268700); assay type: protein assay; details: Compound concentration 10.0 uM
[12] = target: T3, Alpha-1D adrenergic receptor (Homo sapiens) (UniProt P25100); assay: Inhibition of Adrenergic alpha1D at 10 µM in the Eurofins-Panlabs radioligand binding assay (Eurofins_assay_203400); details: Compound concentration 10.0 uM
T3 sequence (whole entry): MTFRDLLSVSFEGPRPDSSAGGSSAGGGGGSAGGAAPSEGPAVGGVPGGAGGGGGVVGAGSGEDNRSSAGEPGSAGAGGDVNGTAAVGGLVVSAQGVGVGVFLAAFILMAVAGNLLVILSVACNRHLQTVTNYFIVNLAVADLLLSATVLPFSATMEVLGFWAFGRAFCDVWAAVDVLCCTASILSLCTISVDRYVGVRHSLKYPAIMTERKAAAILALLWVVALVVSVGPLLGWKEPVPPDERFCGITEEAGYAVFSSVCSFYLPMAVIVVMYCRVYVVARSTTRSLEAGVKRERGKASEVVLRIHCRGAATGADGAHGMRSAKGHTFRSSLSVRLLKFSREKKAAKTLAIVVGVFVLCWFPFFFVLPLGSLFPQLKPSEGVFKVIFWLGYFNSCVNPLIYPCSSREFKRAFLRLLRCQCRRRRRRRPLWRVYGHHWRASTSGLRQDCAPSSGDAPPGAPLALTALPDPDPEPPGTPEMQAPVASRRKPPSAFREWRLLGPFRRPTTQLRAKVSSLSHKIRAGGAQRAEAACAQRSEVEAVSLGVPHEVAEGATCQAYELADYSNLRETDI

[13] = target: Beta-3 adrenergic receptor (Homo sapiens) (UniProt P13945); details: Compound concentration 10.0 uM
Chain of Beta-3 adrenergic receptor (Homo sapiens) (P13945 whole entry, looked up): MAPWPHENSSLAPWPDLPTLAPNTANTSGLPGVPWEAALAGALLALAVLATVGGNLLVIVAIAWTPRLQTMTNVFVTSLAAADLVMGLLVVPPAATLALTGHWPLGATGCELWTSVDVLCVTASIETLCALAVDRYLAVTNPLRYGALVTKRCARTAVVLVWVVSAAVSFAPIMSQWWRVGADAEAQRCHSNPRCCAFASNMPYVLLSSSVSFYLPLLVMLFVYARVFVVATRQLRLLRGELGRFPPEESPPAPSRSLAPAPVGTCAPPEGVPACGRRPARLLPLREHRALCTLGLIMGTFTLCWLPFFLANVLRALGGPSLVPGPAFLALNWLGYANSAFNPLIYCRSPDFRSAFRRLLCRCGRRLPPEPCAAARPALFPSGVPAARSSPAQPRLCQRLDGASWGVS

[14] = target: 5-hydroxytryptamine receptor 3A (Homo sapiens) (UniProt P46098); details: Compound concentration 10.0 uM
Chain of 5-hydroxytryptamine receptor 3A (Homo sapiens) (P46098 whole entry): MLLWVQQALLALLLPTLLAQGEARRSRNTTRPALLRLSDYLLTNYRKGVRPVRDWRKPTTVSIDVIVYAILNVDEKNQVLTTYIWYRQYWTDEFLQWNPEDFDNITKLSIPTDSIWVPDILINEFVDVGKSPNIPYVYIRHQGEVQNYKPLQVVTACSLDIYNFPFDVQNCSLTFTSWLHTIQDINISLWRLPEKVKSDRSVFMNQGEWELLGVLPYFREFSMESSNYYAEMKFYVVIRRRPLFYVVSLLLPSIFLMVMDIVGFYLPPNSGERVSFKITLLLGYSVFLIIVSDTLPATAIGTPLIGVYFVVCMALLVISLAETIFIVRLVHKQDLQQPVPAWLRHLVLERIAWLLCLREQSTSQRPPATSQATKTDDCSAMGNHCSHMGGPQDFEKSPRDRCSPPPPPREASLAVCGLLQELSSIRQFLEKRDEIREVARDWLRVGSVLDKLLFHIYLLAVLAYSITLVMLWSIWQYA

Chain of Endothelin receptor type B (Homo sapiens) (P24530 whole entry): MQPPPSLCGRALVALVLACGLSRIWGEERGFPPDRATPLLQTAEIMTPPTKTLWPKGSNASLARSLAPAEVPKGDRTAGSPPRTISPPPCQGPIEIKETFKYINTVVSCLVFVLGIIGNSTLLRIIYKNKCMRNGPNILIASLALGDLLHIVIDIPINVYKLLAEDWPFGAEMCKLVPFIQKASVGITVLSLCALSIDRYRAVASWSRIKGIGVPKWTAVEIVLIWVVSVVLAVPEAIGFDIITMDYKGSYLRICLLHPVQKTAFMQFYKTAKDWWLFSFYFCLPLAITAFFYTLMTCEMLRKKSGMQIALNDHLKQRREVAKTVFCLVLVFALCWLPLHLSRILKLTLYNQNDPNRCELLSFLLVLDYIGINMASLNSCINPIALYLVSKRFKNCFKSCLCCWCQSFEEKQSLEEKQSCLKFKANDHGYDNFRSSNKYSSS
Chain of Sigma non-opioid intracellular receptor 1 (Homo sapiens) (Q99720 whole entry): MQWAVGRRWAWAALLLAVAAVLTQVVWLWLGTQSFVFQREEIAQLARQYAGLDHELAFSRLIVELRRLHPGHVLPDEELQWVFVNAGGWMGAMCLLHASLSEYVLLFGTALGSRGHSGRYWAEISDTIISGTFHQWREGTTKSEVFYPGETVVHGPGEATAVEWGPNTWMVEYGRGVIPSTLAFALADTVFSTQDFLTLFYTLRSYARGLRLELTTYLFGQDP
Chain of Kappa-type opioid receptor (Homo sapiens) (P41145 whole entry): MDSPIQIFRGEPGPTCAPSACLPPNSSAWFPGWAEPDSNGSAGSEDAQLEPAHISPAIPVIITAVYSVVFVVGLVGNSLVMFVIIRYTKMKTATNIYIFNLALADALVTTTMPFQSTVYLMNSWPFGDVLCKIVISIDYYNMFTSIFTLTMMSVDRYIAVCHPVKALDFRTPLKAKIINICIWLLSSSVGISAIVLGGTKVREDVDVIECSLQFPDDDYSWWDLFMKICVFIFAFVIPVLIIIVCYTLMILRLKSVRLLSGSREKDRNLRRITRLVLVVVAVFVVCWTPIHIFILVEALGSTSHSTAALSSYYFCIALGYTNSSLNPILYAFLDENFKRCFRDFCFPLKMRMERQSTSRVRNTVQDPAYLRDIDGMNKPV

Compound	inhibition [1] [%]	inhibition [2] [%]	inhibition [3] [%]	inhibition (Rattus norvegicus) [%]	inhibition [4] [%]	% Inhibition of Control Agonist Response (Mean n=2) [5] [%]	% of Control Agonist Response (Mean n=2) [5] [%]	inhibition [6] [%]	inhibition [7] [%]	inhibition [8] [%]	inhibition [9] [%]	inhibition [10] [%]	inhibition [11] [%]	inhibition (Oryctolagus cuniculus) [%]	inhibition [12] [%]	inhibition [13] [%]	inhibition [14] [%]
O=C(N1CCS(=O)(=O)CC1)N1C[C@H](c2ccc(OC(F)(F)F)cc2)C[C@H](c2nc(C3CC3)no2)C1 [BAY-386]	12	-3	-4	11	-3	3.7	1	-3	1	3	0	-2	3	9	-4	–	–
Cc1noc([C@H]2C[C@@H](c3ccc(C(F)(F)F)cc3)CN(C(=O)N3CCS(=O)(=O)C3)C2)n1 [BAY-448]	–	–	–	–	–	–	–	–	–	–	–	–	–	–	–	19.3	12.8

From ChEMBL document CHEMBL4507269, “Data for DCP probe BAY-386” (2021)
